What was measured:
[1] = Toxicity (Table 1 summary of characteristics)
T24 cells [2] = test: Zebularine metabolites in T24 cells (SAX-10 HPLC); type: in vitro ADME, human; conditions: 6 hr incubation
Procedure: ZB, ZB-MP, ZB-DP and ZB-TP correspond, respectively, to Zebularine, 5′-mono, 5′-di- and 5′-triphosphate metabolites. There are two unidentified metabolites, indicated by the symbols ?1 and ?2.
Zebularine metabolites were identified after incubation of human bladder cancer cells (T24) in DMEM+10% FCS medium with antibiotics. Zebularine (10 μM, 1 μCi), specific activity 200 DPM/pmole was used in these experiments. At the end of the incubation, cells were extracted with 60% methanol and aliquots were analyzed by SAX-10 HPLC using a methanolwater gradient as follows: 1-5 min 1% MeOH, 5-25 min gradient to 25% MeOH, 25-35 min isocratic with 25% MeOH and back to 1% MeOH after 10 min. The phosphorylated metabolites were identified by comparison with authentic synthetic standards. Using this methodology formation of metabolites as a function of concentration after a 6 hr incubation period was investigated (FIG. 17). The major metabolite formed was the 5′-triphosphate.

EJ6 tumors = EJ6 tumors in BALB/c nu/nu mice, tumor volume and histology; type: in vivo
Procedure: (§1) EJ6 cells (5×10^5/injection) were inoculated subcutaneously into the right and left flanks of male BALB/c nu/nu mice at 4-6 weeks of age (available from Harlan, San Diego, Calif.). Zebularine treatments were initiated after macroscopic (50-200 mm 3) tumor formation (4-6 weeks later). Zebularine (500 mg/kg or 1000 mg/kg) was administered daily via intraperitoneal injection or oral gauage feeding over a period of 18 days. Control mice received 0.45% saline administered via intraperitoneal injection or oral gavage feeding over a period of 18 days. Mice (n=30) were divided into five groups (control group, 500 mg/kg intraperitoneal injection, 500 mg/kg oral, 1000 mg/kg intraperitoneal injection, and 1000 mg/kg oral). Each treatment group consisted of a minimum of five animals (at least 6 tumors per group).
Tumor volumes (TV) were measured with calipers and calculated using the following formula: tumor volume=LD^2/2 (where L is the longest diameter and D is the shortest diameter). The relative tumor volume (RTV) was calculated as: RTV=TVn/TVo, where TVn is the calculated volume at day n. Animals were sacrificed 24 hours after the last treatment. Tumors were removed, immediately fixed with neutral buffered formalin and then embedded in OCT compound for frozen sections. The frozen sections were processed and stained with hematoxylin and eosin (H&E). All histological examinations were carried out by light microscopy using a Leica DM LB microscope (Leica Microsystems, Germany).

DNMT3b3 = target: T1, DNMT3b3 (Homo sapiens, UniProt Q9UBC3); test: Western blot of DNMT3b3 level in treated T24 cells; type: cell-based; conditions: 500 μM for 48 h
T1 construct: protein extracts were isolated from both treated and untreated T24; endogenous in cells; host or cells: T24 human bladder carcinoma cells (ATCC)
Procedure: The mRNA for DNMT3b3 is the only 3b transcript expressed in T24 cells, and DNMT3a levels could not be assessed because no suitable antibodies against DNMT3a are available. Thus, with reference to FIG. 12, protein extracts were isolated from both treated and untreated T24 (population 3 million cells, treated with 500 μM Zebularine for 48 h), and […] with specific antibodies for DNMT1 and DNMT3b3 as shown in FIG. 12. β-actin was included as a loading control, and the molecular weights of each protein are indicated.

[3] = Body weight of tumor-bearing BALB/c nu/nu mice; type: in vivo
Procedure: as §1
Similarly, each group of mice (n=5 or 6) was weighed at the indicated time points, and average body weight was plotted against days after initial treatment in FIG. 14.

T24 cells [4] = test: Incorporation of Zebularine into DNA and RNA in T24 cells; type: in vitro ADME, human; conditions: 10 μM, 1 μCi, 24 hr
Procedure: FIG. 19 is a bar graph depicting the relative incorporation of Zebularine into DNA and RNA in T24 cells, showing that approximately 7 times the amount of Zebularine is incorporated into RNA as DNA.
Following a similar incubation protocol in T24 cells (Zebularine (10 μM, 1 μCi) for 24 hr, cellular DNA and RNA were isolated by the tri-reagent method according to the manufacture's instructions. Levels of Zebularine and 2′-Deoxyzebularine were determined by measuring total radioactivity in purified RNA and DNA, respectively. The identity of Zebularine and 2′-Deoxyzebularine was accomplished by a reverse phase HPLC analysis of digested RNA and DNA and comparison against authentic standards. In FIG. 19 a bar graph depicts the relative incorporation of Zebularine into DNA and RNA in T24 cells, showing that approximately 7 times the amount of Zebularine is incorporated into RNA as DNA.

[5] = tested on: p16 promoter and p16 exon 2; test: Continuous long-term treatment of T24 cells, methylation of p16 promoter and p16 exon 2; type: cell-based, human; conditions: 100 μM continuous treatment, Day 14, T24 cells; dropped from ˜96%
silenced hph gene = test: Plate assay, reactivation of the methylation-silenced hph gene (hygromycin resistance), strain N644; type: cell-based, Neurospora crassa; conditions: 2.5-400 nmoles on paper disc
Procedure: FIG. 5 is a series of photographs of plate assays, showing reactivation of the silenced hph gene in Neurospora crassa by Zebularine. N. crassa strain N644 has a single copy of the E. coli hph gene that was silenced by cytosine methylation. The active hph gene confers hygromycin resistance.
Treatments are indicated above each plate; the listed compound was applied to the paper discs in the middle of each plate. With the exception of the “no hygromycin” plate, all plates had 5 mg hygromycin B added in a 5 ml 0.7% agar overlay after 24 hours growth at 32° C. The plates were then incubated an additional two days at the same temperature and photographed.
Plate tests were performed with solidified medium essentially as previously described (Selker, Proc. Natl. Acad. Sci. USA 95;9430-9435, 1998). In brief, approximately 2,000 N. crassa conidia of the indicated were plated on each plate. Drugs were administered from a 4-mm diameter Whatman™ no. 1 paper disk placed in the middle of each plate shortly after plating.
N. crassa was used to quantitatively examine the effectiveness of Zebularine at reducing or reversing methylation (Selker, Proc. Natl. Acad. Sci. USA, 95:9430-9435, 1998). […]

[6] = all treated groups: 500 or 1000 mg/kg daily, intraperitoneal or oral, 18 days

Row | Compound | Toxicity [1] | major metabolite formed (T24 cells [2]) | tumor regression (EJ6 tumors; 1000 mg/kg orally or intraperitoneally, daily, 18 days) | tumor growth (relative tumor volume) vs control group (EJ6 tumors; [6]) | ratio of tumor cells to stroma (H&E stained tumor sections), treated versus untreated (EJ6 tumors; tumors removed 24 hours after the last treatment) | level of DNMT3b3 (DNMT3b3) | weight loss [3, 6] | greatest weight loss ([3]; group treated with 1000 mg/kg) | amount incorporated into RNA relative to DNA (T24 cells [4]) | methylation level at maximum demethylation [5] | reactivation of silenced hph gene (conidia growth on hygromycin) (silenced hph gene)
1 | Nc1ncn([C@@H]2O[C@H](CO)[C@@H](O)[C@H]2O)c(=O)n1 [5-Aza-CR, 5-azacytidine, reference compound] | High |  |  |  |  |  |  |  |  |  | 
2 | O=c1ncccn1[C@@H]1O[C@H](CO)[C@@H](O)[C@H]1O [Zebularine, 1-β-ribofuranosyl-1,2-dihydropyrimidin-2-one] |  | 5′-triphosphate | tumor regression was observed | tumor growth appeared suppressed | lower ratio of tumor cells to stroma | significant reduction | weight loss was minimal | ~7% | approximately 7 times | ~47% | reactivate the hph gene
